Test results published in patent publication US12251444B2, “Compositions and methods for delivering an agent to a wound” (priority 2009, dated 2025).

Assays:
[1] = Antibiotic elution from sterilized chitosan sponges in PBS (TDx); format: physicochemical; settings: for effect of a co-loaded antibiotic on release from chitosan sponge: sponges hydrated with 5 mg/ml single or combined antibiotics, 20 ml PBS
Experimental: In a preferred approach adopted for use in the goat wound treatment model described in Example 2, 2.5 grams of chitosan was dissolved in 247.5 ml of 1 (v/v) % blended acid solvent. The mixture contained 75%/25% lactic to acetic acid. This mixture was stirred for 4-6 hours at maximum allowable speed on a stir plate. The chitosan solution was filtered to remove undissolved chitosan. 25 ml of chitosan solution was pipetted into small aluminum weigh dishes ([…]). Each dish was frozen at […] freezer for 1 hour. The frozen samples were then placed into a freeze-dryer and lyophilize for 48 hours. Sponge samples were neutralized in 0.175 M NaOH— solution for ˜30-40 seconds. The sponges were rinsed repeatedly in containers filled with distilled water and pH changes were monitored until the rinsing water was neutral in pH. The re-hydrated sponges were then incubated at −80 C freezer for 1 hour and re-lyophilized for 24-48 hours. The sponges were then sterilized using low-dose gamma irradiation at Wright Medical (25-32 kGy).
Sponges were subjected to elution tests by submerging hydrated sponges into 20 ml of 1× Phosphate Buffered Saline (PBS), kept in a 37° C. incubator for the duration of the study. […] One ml aliquots were taken at 1, 3, 6, 24, 48, and 72 hours. Aliquots were tested for antibiotic concentration using a fluorescence polarization immunoassay technique (TDx, Abbott Labs, Abbott Park, IL).

[2] = test system: S. aureus (Cowan I strain); assay: Turbidity assay of film eluates against S. aureus; format: cell-based, Staphylococcus aureus; settings: 48 and 72 hr eluate samples from chitosan films
Experimental: In other studies, antibiotic activity against S. aureus (Cowan I strain) was determined by utilizing the remaining antibiotic elution samples, in triplicate, in a turbidity assay. In this turbidity study, solution clarity after sufficient bacterial incubation with antibiotic eluates indicated bacterial inhibition due to antibiotic activity.
Blanks containing neither S aureus nor eluate samples, positive controls containing S aureus without antibiotic eluates, and negative controls containing both S aureus and high concentration antibiotic standards were mixed and incubated at 37° C. along with the eluate samples. After 24 hours of incubation, the tubes were vortexed and the absorbance at 530 nm of each inoculum solution was recorded using a spectrophotometer.

[3] = Amikacin and vancomycin elution from sterilized chitosan films; format: physicochemical; settings: films soaked in 5 mg/ml antibiotic 2 minutes, 50 ml sterile saline, refreshed
Experimental: Agent elution from chitosan films was also analyzed (FIG. 1C). Sterilized chitosan films were loaded with amikacin and vancomycin. […] The elution was done in 50 ml of sterile saline solution and completely refreshed at each time point. The elution was carried out for 3 days. The values shown in FIG. 1C are expressed in μg/ml.
Elution data from chitosan films is provided at Table 4. […] The elution was done in 50 ml of sterile saline solution and completely refreshed at each time point. The elution was carried out for 3 days. The values shown on the graph are in μg/ml.
In one approach, samples were submerged into 15 ml amikacin solution (5 mg/ml) and allowed to hydrate for 2 minutes. Samples were then subjected to elution tests by submerging the films in 50 ml of 1× Phosphate Buffered Saline (PBS) and agitated in a 37 C incubator for the duration of the study. One ml aliquots were removed at 1, 3, 6, 24, 48, and 72 hours. Aliquots were tested for antibiotic concentration using a fluorescence polarization immunoassay technique (TDxFLx, Abbott Labs, Abbott Park, IL).

[4] = Antibiotic elution from sponge fragments retrieved from goats; format: physicochemical, goat
Excerpt: Sponge fragments remained in 8 of the 10 goats treated with chitosan sponges.

in vivo = settings: goat
Pseudomonas aeruginosa = assay: Turbidity/growth assay of sponge elution samples against Pseudomonas aeruginosa; format: cell-based; settings: eluate of amikacin-loaded 61/71 DDA chitosan sponge
Experimental: To determine whether agents eluted from the sponges could be used to inhibit bacterial growth, zone of inhibition (ZOI) studies were carried out (FIGS. 3A-3D). Chitosan sponges loaded with a single antibiotic or combinations of antibiotics, as above, were analyzed for their ability to inhibit bacterial growth. For the assays to determine inhibition of bacterial growth, the bacterial strains Pseudomonas aeruginosa and Staphylococcus aureus were used. Results showing the inhibition of Pseudomonas aeruginosa and Staphylococcus aureus are shown at Tables 2 and 3, respectively.
Drug activity of the aliquots was tested using a turbidity assay. Two different strains of bacteria were used in this study. Vancomycin samples were tested against Staphylococcus aureus and amikacin samples were tested against both Staphylococcus aureus and Pseudomonas aeruginosa. 200 μl of each aliquot was added to 1.8 ml of Mueller-Hinton II broth combined with 20 μl of S. aureus inoculum. Amikacin samples (200 μl) were also added to 1.75 ml of trypticase soy broth (TSB) and 50 μl of P. aeruginosa inoculum. Samples were incubated for 24 hours at 37 C. Absorbance measurements were recorded after incubation at a wavelength of 530 nm (A530).
Drug activity of the aliquots was tested using a turbidity assay. Samples were tested against Pseudomonas aeruginosa. […] Absorbance measurements at 530 nm on a spectrophotometer (BioTek).

[5] = 5 mg/ml solution (sponge loading)

Row | SMILES | effect of a co-loaded antibiotic on release from chitosan sponge [1] | inhibition of S. aureus growth by film eluates [2] | elution from sterilized chitosan films ([3]; 1 hour) [µg/mL] | elution from sterilized chitosan films ([3]; 3 hours) [µg/mL] | elution from sterilized chitosan films ([3]; 6 hours) [µg/mL] | elution from sterilized chitosan films ([3]; 24 hours) [µg/mL] | elution from sterilized chitosan films ([3]; 48 hours) [µg/mL] | elution from sterilized chitosan films ([3]; 72 hours) [µg/mL] | other results
1 | CCCCCCCCCC(=O)N[C@@H](Cc1c[nH]c2ccccc12)C(=O)N[C@H](CC(N)=O)C(=O)N[C@@H](CC(=O)O)C(=O)N[C@@H]1C(=O)NCC(=O)N[C@@H](CCCN)C(=O)N[C@@H](CC(=O)O)C(=O)N[C@H](C)C(=O)N[C@@H](CC(=O)O)C(=O)NCC(=O)N[C@H](CO)C(=O)N[C@@H]([C@H](C)CC(=O)O)C(=O)N[C@@H](CC(=O)c2ccccc2N)C(=O)O[C@@H]1C [daptomycin] | Amikacin did not affect the release of daptomycin | active in inhibiting the growth of S. aureus |  |  |  |  |  |  | release from chitosan sponge compared with the other tested antibiotics ([1]; 72 hour time point, sponges hydrated with 5 mg/ml, one antibiotic per sponge): significantly less than the other two tested antibiotics
2 | CN[C@H](CC(C)C)C(=O)N[C@H]1C(=O)N[C@@H](CC(N)=O)C(=O)N[C@H]2C(=O)N[C@H]3C(=O)N[C@H](C(=O)N[C@H](C(=O)O)c4cc(O)cc(O)c4-c4cc3ccc4O)[C@H](O)c3ccc(c(Cl)c3)Oc3cc2cc(c3O[C@@H]2O[C@H](CO)[C@@H](O)[C@H](O)[C@H]2O[C@H]2C[C@](C)(N)[C@H](O)[C@H](C)O2)Oc2ccc(cc2Cl)[C@H]1O [vancomycin] | amikacin did not affect the release of vancomycin | active in inhibiting the growth of S. aureus | 83.45 ± 17.25 | 19.35 ± 7.98 | 0.58 ± 0.88 | 2.53 ± 0.66 | 9.72 ± 1.92 | 6.13 ± 0.39 | 12 hr TDx reading, antibiotic elution from remaining sponge fragments, Mean ([4]; mean of 4 goats, fragments retrieved after 42 hours in vivo, 20 ml sterile saline, 37° C., 12 hours): 3.78 µg/mL/g; concentration at 6 h (in vivo; [5]): 1630 ± 646 ng/mL; concentration at 12 h (in vivo; [5]): 703 ± 348 ng/mL; concentration at 24 h (in vivo; [5]): 845 ± 539 ng/mL; concentration at 36 h (in vivo; [5]): 740 ± 477 ng/mL; concentration at 42 h (in vivo; [5]): 275 ± 70 ng/mL
3 | NCC[C@H](O)C(=O)N[C@@H]1C[C@H](N)[C@@H](O[C@H]2O[C@H](CN)[C@@H](O)[C@H](O)[C@H]2O)[C@H](O)[C@H]1O[C@H]1O[C@H](CO)[C@@H](O)[C@H](N)[C@H]1O [amikacin] | vancomycin nor daptomycin affected the release of amikacin |  | 50.63 ± 4.49 | 2.15 ± 1.13 | 3.17 ± 1.14 | 3.93 ± 0.57 | 4.7 ± 2.49 | 0.6 ± 0.48 | Bacterial growth inhibition of P. aeruginosa (Pseudomonas aeruginosa; after 72 hours): 93.1%; Bacterial growth inhibition of P. aeruginosa (Pseudomonas aeruginosa; after one hour): 98.7%; 12 hr TDx reading, antibiotic elution from remaining sponge fragments, Mean ([4]; goat, 12 h): 0.60 µg/mL/g; concentration at 6 h (in vivo): 526 ± 478 ng/mL; concentration at 12 h (in vivo): 200 ng/mL; concentration at 24 h (in vivo): 200 ng/mL; concentration at 36 h (in vivo): 200 ng/mL; concentration at 42 h (in vivo): 200 ng/mL
